Measured values taken from patent publication US20170049843A1, “Hepatocyte Growth Factor Mimics as Therapeutic Agents” (WASHINGTON STATE UNIVERSITY, priority 2011, published 2017).
“And” between values parts separate entries of the source, which are not always exact repeats. Identical values can stand only once. Where a SMILES comes first, the peptide text is derived from it. [ ]: non-standard residue; d: D form. The star is where a group is joined. Nle = CCCC[C@H](N)C(=O)O; Hexanoyl = CCCCCC(=O)*; Ahx = NCCCCCC(=O)O

Legend:
Format in all cases: cell-based, rat
[1] = test system: hippocampal neurons; experiment: Spinogenesis in mRFP-β-actin transfected dissociated hippocampal neurons; conditions: 5 days; for spine numbers per 50 μm dendrite length: biologically active doses, printed as 10^−13 M, control 17.4
Experimental: Hippocampal neurons ([…] cells per square cm) were cultured from P1 Sprague Dawley rats on plates coated with poly-L-lysine from Sigma (St. Louis, Mo.; molecular weight 300,000). Hippocampal neurons were maintained in Neurobasal A media from Invitrogen (Carlsbad, Calif.) supplemented with B27 from Invitrogen, 0.5 mM L-glutamine, and […] cytosine-D-arabinofuranoside from Sigma added at 2 days in vitro. Hippocampal neurons were then cultured a further 3-7 days, at which time they were either transfected or treated with various pharmacological reagents as described in (Wayman, Davare et al. 2008).
Neurons were transfected with mRFP-β-actin on day in vitro 6 (DIV6) using LipofectAMINE™ 2000 (Invitrogen) according to the manufacturer's protocol. This protocol yielded the desired 3-5% transfection efficiency thus enabling the visualization of individual neurons. Higher efficiencies obscured the dendritic arbor of individual neurons. Expression of fluorescently tagged actin allowed clear visualization of dendritic spines, as dendritic spines are enriched in actin. On DIV7 the cells were treated with vehicle (H20) or peptides (as described in the text) added to media. On DIV12 the neurons were fixed (4% paraformaldehyde, 3% sucrose, 60 mM PIPES, 25 mM HEPES, 5 mM EGTA, 1 mM MgCl2, pH 7.4) for 20 min at room temperature and mounted. Slides were dried for at least 20 hours at 4° C. and fluorescent images were obtained with Slidebook 4.2 Digital Microscopy Software driving an Olympus IX81 inverted confocal microscope with a 60× oil immersion lens, NA 1.4 and resolution 0.280 μm Dendritic spine density was measured on primary and secondary dendrites at a distance of at least 150 μm from the soma. Five 50 μm long segments of dendrite from at least 10 neurons per data point were analyzed for each data point reported. Each experiment was repeated at least three times using independent culture preparations. Dendrite length was determined using the National Institutes of Health's Image J 1.41o program (NIH, Bethesda, Md.) and the neurite tracing program Neuron J (Meijering, Jacob et al. 2004) Spines were manually counted.
Hippocampal neurons (2×10^5 cells per square centimeter) were cultured from P1-2 Sprague Dawley rats on plates coated with poly-L-lysine from Sigma (St. Louis, Mo.; molecular weight 300,000). Hippocampal neurons were maintained in Neurobasal A media from Invitrogen (Carlsbad, Calif.) supplemented with B27 from Invitrogen, 0.5 mM L-glutamine, and […] cytosine-D-arabinofuranoside from Sigma added at 2 days in vitro. Hippocampal neurons were then cultured a further 3-7 days, at which time they were either transfected or treated with various pharmacological reagents as described in the text or figure legends.

[2] = test system: hippocampal neurons; experiment: Immunocytochemistry: correlation of spines to synaptic markers (VGLUT1, Synapsin, PSD-95); conditions: 5 days; for Number of spines/50 μm (PSD-95 staining experiment) / Number of spines/50 μm (Synapsin staining experiment) / Number of spines/50 μm (VGLUT1 staining experiment): 10^−12 M, N=25
Experimental: (§1) Transfected neurons were treated, fixed and stained. Briefly, cells were permeablized with 0.1% Triton X-100 detergent (Bio-Rad; Hercules, Calif.) for 10 minutes. An 8% bovine serum albumin (Intergen Company; Burlington, Mass.) in PBS was used to prevent non-specific binding for one hour at R.T.; Primary antibody incubations were at a 1:2500 dilution (see below) in 1% BSA in PBS at 4° C. overnight. Secondary antibody, 1:3000 Alexafluor 488 goat-anti-mouse (Invitrogen: Carlsbad, Calif.) was applied for two hours at room temperature. Coverslips were mounted with ProLong Gold anti-fade reagent (Invitrogen; Carlsbad, Calif.) and all washes were done with PBS. Imaging and analysis were performed as described above. For presynaptic excitatory transmission the VGLUT1 (Synaptic Systems, Goettingen, Germany) marker (Balschun, Moechars et al.) was employed and for general presynaptic transmission synapsinl (Synaptic Systems, Goettingen, Germany) (Ferreira and Rapoport 2002) was applied. A postsynaptic function was established by PSD-95 (Milipore, Billerica, Mass.) (El-Husseini, Schnell et al. 2000). In each instance the total number of spines was counted for the treatment groups, control, Nle1-AngIV and Dihexa, to ensure an active phenotype. The total number of actin enriched spines adjacent to VGLUT1 or Synapsin were counted and converted to a percentage as the percent correlation of treatment-induced spines to presynaptic markers is a strong indicator of ability to transmit excitatory signals.
as §1, with “fixed and stained as previously described in Chapter two. Briefly, cells” for “fixed and stained. Briefly, cells”, “enriched spines (red) adjacent to” for “enriched spines adjacent to”

[3] = test system: CA1 hippocampal neurons; experiment: Spinogenesis in organotypic hippocampal slice cultures (CA1 neurons); conditions: for spines per 50 μm dendrite length, CA1 neurons: 10-12 M, 2 day treatment, control 7; for mean spine numbers per 50 μm dendrite length, CA1 neurons: 10^−12 M Dihexa or 10 ng/ml HGF, 48 hours, control 6.1
Experimental: (§2) Hippocampi from P4 Sprague Dawley rats were cultured as previously described (Wayman, Impey et al. 2006). Briefly, 400 μm slices were cultured on (Milipore, Billerica, Mass.) for 3 days after which they were biolistically transfected with tomato fluorescent protein (TFP) using a Helios Gen Gun (BioRad, Hercules, Calif.), according to the manufacturer's protocol, to visualize dendritic arbors. Following a 24 hour recovery period slices were stimulated with vehicle (H2O), 1 pM Nle1-AngIV or Dihexa for 2 days. Slices were fixed and mounted. Hippocampal CA1 neuronal processes were imaged and measured as described above.
as §2, with “Gene” for “Gen”, “with” for “with vehicle (H2O),”

Compound: CCCC[C@H](N)C(=O)N[C@@H](Cc1ccc(O)cc1)C(=O)N[C@H](C(=O)N[C@@H](Cc1c[nH]cn1)C(=O)N1CCC[C@H]1C(=O)N[C@@H](Cc1ccccc1)C(=O)O)[C@@H](C)CC [Nle1-AngIV, reference compound] (H-[Nle]YIHPF-OH; N-terminus and C-terminus assumed)
- spine numbers per 50 μm dendrite length [1]: 29.8
- Number of spines/50 μm (PSD-95 staining experiment) [2]: 36 spines/50 μm
- Number of spines/50 μm (Synapsin staining experiment) [2]: 31 spines/50 μm
- Number of spines/50 μm (VGLUT1 staining experiment) [2]: 39 spines/50 μm
- spines per 50 μm dendrite length, CA1 neurons [3]: 11 spines per 50 μm dendrite length

Compound: HGF: recombinant hepatocyte growth factor (R&D Systems), ligand of c-Met
- mean spine numbers per 50 μm dendrite length ([1]; HGF 5 ng/ml): 24.7
- mean spine numbers per 50 μm dendrite length ([1]; HGF 10 ng/ml): 27.5 and 33 and 29.3
- mean spine numbers per 50 μm dendrite length ([1]; HGF 20 ng/ml): 27.0
- correlation between presynaptic marker Synapsin and postsynaptic spines ([2]; HGF 10 ng/ml, vehicle 94%): 98%
- mean spine numbers per 50 μm dendrite length, CA1 neurons [3]: 18.5

Compound: CCCCCC(=O)N[C@@H](Cc1ccc(O)cc1)C(=O)N[C@H](C(=O)NCCCCCC(N)=O)[C@@H](C)CC [Dihexa, N-hexanoic-Tyr-Ile-(6)-aminohexanoic amide] (Hexanoyl-Tyr-Ile-[Ahx]-NH2)
- spine numbers per 50 μm dendrite length [1]: 26.4
- Number of spines/50 μm (PSD-95 staining experiment) [2]: 43 spines/50 μm
- Number of spines/50 μm (Synapsin staining experiment) [2]: 37 spines/50 μm
- Number of spines/50 μm (VGLUT1 staining experiment) [2]: 44 spines/50 μm
- spines per 50 μm dendrite length, CA1 neurons [3]: 11 spines per 50 μm dendrite length
- mean spine numbers per 50 μm dendrite length, CA1 neurons [3]: 15.0
